Results on 3 compounds are retold here after ChEMBL document CHEMBL1142185, “Posaconazole enhances the activity of amphotericin B against Aspergillus hyphae in vitro” (2007).

In brackets after ≈: the same amount, converted by molar mass.

Type in all cases: functional
The test system of experiment [1] is Aspergillus niger. The experiment can be described thus: Antifungal activity against Aspergillus niger hyphae.
In experiment [2] the test system is Aspergillus terreus. The experiment can be described thus: Antifungal activity against Aspergillus terreus conidia.
In experiment [3] the test system is Aspergillus fumigatus. Kind of experiment: Antifungal activity against Aspergillus fumigatus hyphae.
In experiment [4] the test system is Aspergillus niger. Kind of experiment: Antifungal activity against Aspergillus niger conidia.
Experiment [5] deals with Aspergillus flavus. The experiment can be described thus: Antifungal activity against Aspergillus flavus conidia.
The subject of experiment [6] is Aspergillus terreus. The experiment can be described thus: Antifungal activity against Aspergillus terreus hyphae.
In experiment [7] the test system is Aspergillus flavus. Kind of experiment: Antifungal activity against Aspergillus flavus hyphae.
Experiment [8] has as its system Aspergillus fumigatus. Kind of experiment: Antifungal activity against Aspergillus fumigatus conidia.

A word on the MIC90: it is the lowest concentration that inhibits either 90% of growth or 90% of the strains tested, depending on the study. Read a high MIC90 as weaker potency. Consider `C[C@@H]1[C@H](O)[C@@H](C)/C=C/C=C/C=C/C=C/C=C/C=C/C=C/[C@H](O[C@@H]2O[C@H](C)[C@@H](O)[C@H](N)[C@@H]2O)C[C@@H]2O[C@](O)(C[C@@H](O)C[C@@H](O)[C@H](O)CC[C@@H](O)C[C@@H](O)CC(=O)O[C@H]1C)C[C@H](O)[C@H]2C(=O)O` [AMPHOTERICIN B], for which the MIC90 with Aspergillus niger [1] came out at 5 µg/mL (≈ 5.41 µM); in the experiment on Aspergillus terreus [2], 2.5 µg/mL (≈ 2.71 µM); against Aspergillus fumigatus [3] it was 2.5 µg/mL (≈ 2.71 µM); against Aspergillus niger [4], 1.25 µg/mL (≈ 1.35 µM); with Aspergillus flavus [5] it was 1.25 µg/mL (≈ 1.35 µM); against Aspergillus terreus [6] it was 5 µg/mL (≈ 5.41 µM). Moreover, the values for the MIC90 against Aspergillus flavus [7] and with Aspergillus fumigatus [8] were 2.5 µg/mL (≈ 2.71 µM) and 0.625 µg/mL (≈ 0.676 µM), respectively.
Take `CC[C@@H]([C@H](C)O)n1ncn(-c2ccc(N3CCN(c4ccc(OC[C@@H]5CO[C@@](Cn6cncn6)(c6ccc(F)cc6F)C5)cc4)CC3)cc2)c1=O` [POSACONAZOLE]: the MIC90 was determined as 1 µg/mL (≈ 1.43 µM) against Aspergillus niger [1]; 0.25 µg/mL (≈ 0.357 µM) in the experiment on Aspergillus terreus [2]; 0.5 µg/mL (≈ 0.713 µM) against Aspergillus fumigatus [3]; 0.25 µg/mL (≈ 0.357 µM) in the experiment with Aspergillus niger [4]; 0.125 µg/mL (≈ 0.178 µM) with Aspergillus flavus [5]; 1 µg/mL (≈ 1.43 µM) with Aspergillus terreus [6]. Also, the MIC90 turned out to be 0.5 µg/mL (≈ 0.713 µM) against Aspergillus flavus [7] and 0.125 µg/mL (≈ 0.178 µM) against Aspergillus fumigatus [8].
For the compound `C[C@@H](c1ncncc1F)[C@](O)(Cn1cncn1)c1ccc(F)cc1F` [VORICONAZOLE], the MIC90 came to 2 µg/mL (≈ 5.73 µM) in the experiment with Aspergillus niger [1]; 0.5 µg/mL (≈ 1.43 µM) in the experiment on Aspergillus terreus [2]; 1 µg/mL (≈ 2.86 µM) against Aspergillus fumigatus [3]; 0.5 µg/mL (≈ 1.43 µM) against Aspergillus niger [4]; 0.5 µg/mL (≈ 1.43 µM) against Aspergillus flavus [5]; 1 µg/mL (≈ 2.86 µM) against Aspergillus terreus [6]. Also, the MIC90 against Aspergillus flavus [7] came out at 2 µg/mL (≈ 5.73 µM); in the experiment on Aspergillus fumigatus [8] it was 0.125 µg/mL (≈ 0.358 µM).
